In brackets after ≈: the same amount, converted by molar mass. Activity calls are given as the source filed them. The calls are words filed in the database; no cut-off is given here.
How the values were obtained:
Streptococcus pyogenes [1] = test: Antimicrobial activity against strong ciprofloxacin-resistant Streptococcus pyogenes at 10 ug by disk diffusion assay; format: functional; settings: read-out: IZ
Streptococcus pyogenes [2] = test: Antimicrobial activity against mild ciprofloxacin-resistant Streptococcus pyogenes by agar dilution method; format: functional
Streptococcus pyogenes [3] = test: Antimicrobial activity against strong ciprofloxacin-resistant Streptococcus pyogenes by agar dilution method; format: functional
Streptococcus pyogenes [4] = test: Antimicrobial activity against mild ciprofloxacin-resistant Streptococcus pyogenes assessed as 1 fold decrease in compound MIC by agar dilution method; format: functional, organism-based
Streptococcus pyogenes [5] = test: Antimicrobial activity against ciprofloxacin-susceptible Streptococcus pyogenes harboring Asp91/Asn mutation in parC gene by agar dilution method; format: functional
Streptococcus pyogenes [6] = test: Antimicrobial activity against strong ciprofloxacin-resistant Streptococcus pyogenes assessed as 1 fold decrease in compound MIC by agar dilution method; format: functional, organism-based
Streptococcus pyogenes [7] = test: Antimicrobial activity against ciprofloxacin-susceptible Streptococcus pyogenes harboring Asp91/Asn mutation in parC gene assessed as 1 fold decrease in compound MIC by agar dilution method; format: functional, organism-based
Streptococcus pyogenes [8] = test: Antimicrobial activity against macrolide-resistant Streptococcus pyogenes emm77/ST399/T28 expressing tetM gene by agar dilution method; format: functional

SMILES	zone of inhibition at 10 µg/disc (Streptococcus pyogenes [1])	MIC50 (Streptococcus pyogenes [2])	MIC90 (Streptococcus pyogenes [2])	MIC (Streptococcus pyogenes [3])	Activity (Streptococcus pyogenes [4])	MIC50 (Streptococcus pyogenes [5])	MIC90 (Streptococcus pyogenes [5])	Activity (Streptococcus pyogenes [6])	Activity (Streptococcus pyogenes [7])	MIC (Streptococcus pyogenes [8])
CCn1cc(C(=O)O)c(=O)c2cc(F)c(N3CCNCC3)cc21 [NORFLOXACIN]	0 mm	32 mg/L (≈ 100 µM)	> 32 mg/L	64 mg/L (≈ 200 µM)	Active	4 mg/L (≈ 12.5 µM)	8 mg/L (≈ 25.1 µM)	Active	Active	–
CO/N=C1\CN(c2nc3c(cc2F)c(=O)c(C(=O)O)cn3C2CC2)CC1CN (configuration not stated) [GEMIFLOXACIN]	0 mm	≤ 0.25 mg/L	≤ 0.25 mg/L	1 mg/L (≈ 2.57 µM)	–	≤ 0.25 mg/L	≤ 0.25 mg/L	–	–	–
CC1COc2c(N3CCN(C)CC3)c(F)cc3c(=O)c(C(=O)O)cn1c23 (configuration not stated) [OFLOXACIN]	0 mm	4 mg/L (≈ 11.1 µM)	8 mg/L (≈ 22.1 µM)	64 mg/L (≈ 177 µM)	–	1 mg/L (≈ 2.77 µM)	2 mg/L (≈ 5.53 µM)	–	–	–
CN(C)[C@@H]1C(O)=C(C(N)=O)C(=O)[C@@]2(O)C(O)=C3C(=O)c4c(O)cccc4[C@@](C)(O)[C@H]3C[C@@H]12 [TETRACYCLINE]	–	–	–	–	–	–	–	–	–	8 mg/L (≈ 18 µM)
COc1c(N2C[C@@H]3CCCN[C@@H]3C2)c(F)cc2c(=O)c(C(=O)O)cn(C3CC3)c12 [MOXIFLOXACIN]	0 mm	0.5 mg/L (≈ 1.25 µM)	0.5 mg/L (≈ 1.25 µM)	4 mg/L (≈ 9.96 µM)	–	≤ 0.25 mg/L	≤ 0.25 mg/L	–	–	–
C[C@H]1COc2c(N3CCN(C)CC3)c(F)cc3c(=O)c(C(=O)O)cn1c23.C[C@H]1COc2c(N3CCN(C)CC3)c(F)cc3c(=O)c(C(=O)O)cn1c23.O [LEVOFLOXACIN]	0 mm	2 mg/L	2 mg/L	32 mg/L	–	≤ 0.5 mg/L	1 mg/L	–	–	–
Cc1c(F)c(N2CCNC(C)C2)cc2c1c(=O)c(C(=O)O)cn2C1CC1 (configuration not stated) [GREPAFLOXACIN]	0 mm	2 mg/L (≈ 5.56 µM)	2 mg/L (≈ 5.56 µM)	16 mg/L (≈ 44.5 µM)	–	≤ 0.5 mg/L	1 mg/L (≈ 2.78 µM)	–	–	–
O=C(O)c1cn(C2CC2)c2cc(N3CCNCC3)c(F)cc2c1=O [CIPROFLOXACIN]	0 mm	–	–	32 mg/L (≈ 96.6 µM)	Active	< 0.5 mg/L	1 mg/L (≈ 3.02 µM)	Active	Active	–
